How the values were obtained:
Assay in all cases: relative viability (nuclei count vs DMSO), 5 days (fraction); higher = more cells survive
[1] = compound: COC1=CC=C(C=C1)COC2=C(C=C(C=C2)CC3=CN=C(N=C3N)N)OC [GW-2580] + CS(=O)(=O)CCNCc1ccc(-c2ccc3ncnc(Nc4ccc(OCc5cccc(F)c5)c(Cl)c4)c3c2)o1 [Lapatinib] (partner 2 µM)
How it was run: (§1)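 Lung cancer cell lines, seeded in 1536-well plates, were treated the following day by pin tool with a single drug or with five library-drug doses (not always all listed) in √10 steps on top of a fixed anchor-drug dose. Cells were fixed and nuclei stained in one step after 5 days, and nuclei were counted. Relative viability is the nuclei count for treated wells divided by that for vehicle wells, reported as medians of duplicate plates.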

[2] = compound: COC1=CC=C(C=C1)COC2=C(C=C(C=C2)CC3=CN=C(N=C3N)N)OC [GW-2580] + CC1(C)CCC(c2ccc(Cl)cc2)=C(CN2CCN(c3ccc(C(=O)NS(=O)(=O)c4ccc(N[C@H](CCN5CCOCC5)CSc5ccccc5)c(S(=O)(=O)C(F)(F)F)c4)cc3)CC2)C1 [Navitoclax] (partner 0.5 µM)
How it was run: as §1

[3] = compound: COC1=CC=C(C=C1)COC2=C(C=C(C=C2)CC3=CN=C(N=C3N)N)OC [GW-2580] + O=C(CCCCCCC(=O)Nc1ccccc1)NO [Vorinostat] (partner 1 µM)
How it was run: as §1

[4] = compound: Cc1cnc(Nc2ccc(OCCN3CCCC3)cc2)nc1Nc1cccc(S(=O)(=O)NC(C)(C)C)c1 [Fedratinib] + Cc1nc(Nc2ncc(C(=O)Nc3c(C)cccc3Cl)s2)cc(N2CCN(CCO)CC2)n1 [Dasatinib] (partner 0.075 µM)
How it was run: as §1

[5] = compound: Cc1cnc(Nc2ccc(OCCN3CCCC3)cc2)nc1Nc1cccc(S(=O)(=O)NC(C)(C)C)c1 [Fedratinib] + CCNC(=O)c1noc(-c2cc(C(C)C)c(O)cc2O)c1-c1ccc(CN2CCOCC2)cc1 [Luminespib] (partner 0.01 µM)
How it was run: as §1

Row | Cell Line | relative viability ([1]; first compound 0.08 µM) | relative viability ([1]; first compound 0.8 µM) | relative viability ([1]; first compound 2.53 µM) | relative viability ([1]; first compound 8 µM) | relative viability ([2]; first compound 0.08 µM) | relative viability ([2]; first compound 0.8 µM) | relative viability ([2]; first compound 2.53 µM) | relative viability ([2]; first compound 8 µM) | relative viability ([3]; first compound 0.08 µM) | relative viability ([3]; first compound 0.8 µM) | relative viability ([3]; first compound 2.53 µM) | relative viability ([3]; first compound 8 µM) | relative viability ([4]; first compound 0.1 µM) | relative viability ([4]; first compound 0.3162 µM) | relative viability ([4]; first compound 1 µM) | relative viability ([5]; first compound 0.1 µM) | relative viability ([5]; first compound 0.3162 µM) | relative viability ([5]; first compound 1 µM)
1 | EBC-1 | 0.193 | 0.219 | 0.214 | 0.21 | 0.418 | 0.37 | 0.369 | 0.37 |  |  |  |  |  |  |  |  |  | 
2 | SW 1573 | 0.979 | 1.11 | 1.18 | 0.856 | 1 | 1.04 | 0.869 | 0.929 | 0.968 | 0.771 | 0.626 | 0.746 | 0.612 | 0.614 | 0.305 | 0.548 | 0.26 | 0.145
3 | A-427 | 1.17 | 1.15 | 0.98 | 1.07 | 1.02 | 1.1 | 0.838 | 0.856 | 0.534 | 0.97 | 0.806 | 0.848 | 0.74 | 0.733 | 0.249 | 0.901 | 0.884 | 0.921
4 | NCI-H2347 | 1.02 | 1.03 | 0.805 | 0.936 | 0.899 | 0.777 | 0.708 | 0.804 | 0.619 | 0.621 | 0.549 | 0.575 | 0.311 | 0.275 | 0.435 | 0.33 | 0.401 | 0.59
5 | NCI-H1355 | 1.08 | 1.2 | 0.817 | 1.01 | 0.984 | 1.08 | 0.827 | 0.944 | 0.701 | 0.656 | 0.529 | 0.697 | 0.67 | 0.75 | 0.374 | 0.59 | 0.702 | 0.696
6 | NCI-H358 | 0.499 | 0.484 | 0.409 | 0.409 |  |  |  |  | 0.754 | 0.816 | 0.631 | 0.984 | 0.148 | 0.147 | 0.129 | 0.578 | 0.2 | 0.307
7 | PC-3 [JPC-3] | 0.458 | 0.462 | 0.358 | 0.446 | 0.807 | 0.854 | 0.72 | 0.779 | 0.917 | 1.26 | 0.572 | 0.639 | 1.11 | 0.905 | 0.966 | 0.716 | 0.793 | 0.642
8 | NCI-H2228 | 0.893 | 1.28 | 1.38 | 1.02 | 1.01 | 0.84 | 0.869 | 0.723 | 0.605 | 0.759 | 0.539 | 0.509 | 0.552 | 0.448 | 0.349 | 0.112 | 0.12 | 0.119

Reference: the supplement of paper PMC10307832
